Tests used:
[1] = system: spike-and-wave discharges induced by gamma-butyrolactone (GBL); test: GBL induced absence seizure model, quantified EEG (spectral power, cortex); assay type: in vivo, beagle dogs
Method: The experiment was carried out on nine male non-naïve beagle dogs, weighing 9-15 kg. All animals were housed in a box or in a kennel under natural lighting with restricted access to food (approx. 300 g/animal/day) and unlimited access to water.
Dogs were implanted with an Emka Technologies telemetric device. Following an incision in the lateral neck region, the telemetric device was introduced into a pouch under the skin. The positive and negative biopotential electrodes were coiled into a loop and tunnelled subcutaneously to protrude into the opened scalp incision. The skin incisions then were closed.
Following a sagittal incision of the scalp, the top of the skull was prepared for implantation. The incision was performed between bregma and lambda sutures in order to place electrodes over the parietal cortex. Three small holes were drilled into the skull, on the right hemisphere. The tips of the electrodes were then pushed through the holes through the skull onto the dura mater. The electrodes were connected to small plugs, placed into a connector and the whole assembly was secured on skull with dental cement. The skin incisions then were closed using aseptic chirurgical thread.
Approximately 2 weeks later, the dogs were placed in a sling for the experiment.
For EEG recording, a telemetry receiver was located nearby the animal to record EEG.
All generated data was acquired and analysed using the EMKA Technologies software. The quality of the EEG signals was checked before launching EEG recording.
Before the experiment, EEG signals were recorded during a few minutes in baseline conditions to check the quality of the signals.
The baseline EEG recording was done for each dog, one day before the test session and lasted 40 minutes. Baseline and test sessions were done at the same time of the day for each dog.
EEG signals were recorded during 40 minutes to evaluate spike-and-wave discharges. The latency to observe spike-and-wave discharges was determined off-line on EEG signals.
The differential outputs between the 2 electrodes at each implantation site were digitized on-line at a sampling rate of 500 Hz/channel and the data stored in raw data files.
EEG was quantitatively analysed by spectral analysis using a Fast Fourier Transform algorithm. Spectra were calculated from epochs of 4.1-second duration. The mean total spectral power between 1.5 and 64 Hz and the power in 6 sub-frequency bands per brain structure recorded (1.5-4 (delta), 5-8 (theta), 8.5-12.5 (alpha), 13-35 (beta), 36-64 (gamma) and 3-6 Hz) was calculated on four 10-minute periods (from 0 to 10, 10 to 20, 20 to 30 and 30 to 40 minutes during baseline and test sessions).
Before being submitted to further analysis, all spectra containing recording artefacts found on visual inspection of the EEG traces were eliminated. Then the averages of 10-minute intervals of the verified individual spectra were saved into data files which then were transferred into Excel calculation sheets.

[2] = Adverse effects observed in dogs of the GBL model studies
[3] = system: pilocarpine-induced seizures; conditions: rodent seizure models; cited from earlier work
[4] = system: postnatal day 10 and 20 rats; conditions: cited from earlier work
focal seizures in humans = conditions: Phase II, placebo group similar; cited from earlier work
[5] = CBDV 100 mg/kg p.o. 4 hours before GBL, across all four time periods

Row | SMILES | power of high frequency bands (beta and gamma) ([1]; Diazepam 2 mg/kg p.o., across all four time periods) | adverse effects observed ([2]; diazepam 4 mg/kg, three dogs, during the test, after GBL administration) | adverse effects observed ([2]; diazepam 6 mg/kg, two dogs, GBL could not be administered) | power of high frequency bands (beta and gamma) [1, 5] | spectral power of lower frequency bands (delta, theta and alpha) [1, 5] | spectral power on delta frequency bands ([1]; CBDV 100 mg/kg p.o. 4 hours before GBL, time-interval 30-40 minutes, vs vehicle controls, p<0.05) | spectral power on 3-6 Hz frequency band ([1]; CBDV 100 mg/kg p.o., following GBL administration, vs vehicle control) | effect in pilocarpine-induced seizures [3] | anticonvulsant action [4] | reductions in focal seizures (focal seizures in humans)
1 | CN1C(=O)CN=C(c2ccccc2)c2cc(Cl)ccc21 [Diazepam] | increased | Motor incoordination and psychotic effects (stereotypies, involuntary movements, barks) | the symptoms were stronger |  |  |  |  |  |  | 
2 | C=C(C)[C@@H]1CCC(C)=C[C@H]1c1c(O)cc(CCC)cc1O [CBDV, cannabidivarin] |  |  |  | increased | decreased | significantly decreased | lowered | not found to have any effect | age and model-specific profile of anticonvulsant action | approximately 40%
